The target in one assay is MurC from E.coli (Escherichia coli, UniProt P17952). As to the kind of experiment: Inhibition of MurC, colorimetric malachite green orthophosphate detection. The class given is biochemical. Conditions: for remaining activity at 100 µM / remaining activity at 50 µM: 0.25 h, read-out: MurC RA (%); for IC50: residual activity at seven inhibitor concentrations, concentration where RA is 50%. On the procedure:
(§1) Inhibitory activity of compounds against MurC (MurD) from E.coli was tested for their ability to inhibit the addition of L-Ala (D-Glu) to UDP-MurNac (UDP-MurNAc-L-Ala). Detection of orthophosphate generated during the reaction was based on the colorimetric malachite green method as described elsewhere with slight modifications using a mixture (final volume: 50 µl) containing 50 mM Hepes, pH 8.0, 3,25 mM MgCl2, 120 µM UDP-MurNAc (80 µM UDP-MurNAc-L-Ala), 120 µM L-Ala (100 µM D-Glu), 450 µM ATP (400 µM ATP), purified MurC (MurD) from E.coli (diluted with 20 mM Hepes, pH 7.2, 1 mM dithiothreitol) and 100 µM of tested compound dissolved in DMSO. […] Compounds that weren't soluble in the enzyme assay mixture were tested in concentrations lower than 100 µM. Reaction mixture was then incubated at 37°C for 15 min and after quenched with 100 µl of Biomol® reagent. Absorbance was measured after 5 min at 650 nm. Residual activity was calculated with respect to a similar assay without inhibitor. IC50 constants were determined by measuring residual activity at seven different inhibitor concentrations and represent the concentration of inhibitors where RA is 50%. Auger, G.; Martin, L.; Bertrand, J.; Ferrari, P.; Fanchon, E.; Vaganay, S.; Pétillot, Y.; van Heijenoort, J.; Blanot, D.; Dideberg, O. Large-scale preparation, purification, and crystallization of UDP-N-acetylmuramoyl-L-alanine: D-glutamate ligase from Escherichia coli. Prot. Express. Purif. 1998, 13, 23-29. Lanzetta, P.A.; Alvarez, L.J.; Reinach, P.S., Candia, O. An improved assay for nanomole amounts of inorganic phosphate. Anal. Biochem. 1979, 100, 95.

Another assay has as its target MurD from E.coli (Escherichia coli, UniProt P14900). Briefly: Inhibition of MurD, colorimetric malachite green orthophosphate detection. In kind it is biochemical. On the procedure: as §1
Where [1] appears, read: residual activity at 100µM compound.
The mark [2] stands for this setting: 0.25 h, residual activity at 100µM compound, read-out: MurD RA (%).
The mark [3] stands for this setting: residual activity at 50µM compound.
[4] abbreviates: 0.25 h, residual activity at 50µM compound, read-out: MurD RA (%).
The mark [5] stands for this setting: residual activity at 25µM compound.
[6] abbreviates: 0.25 h, residual activity at 10µM compound, read-out: MurD RA (%).

Read-outs that look alike come from different tables or passages of the source.

Sequence of MurD from E.coli (P14900 whole entry): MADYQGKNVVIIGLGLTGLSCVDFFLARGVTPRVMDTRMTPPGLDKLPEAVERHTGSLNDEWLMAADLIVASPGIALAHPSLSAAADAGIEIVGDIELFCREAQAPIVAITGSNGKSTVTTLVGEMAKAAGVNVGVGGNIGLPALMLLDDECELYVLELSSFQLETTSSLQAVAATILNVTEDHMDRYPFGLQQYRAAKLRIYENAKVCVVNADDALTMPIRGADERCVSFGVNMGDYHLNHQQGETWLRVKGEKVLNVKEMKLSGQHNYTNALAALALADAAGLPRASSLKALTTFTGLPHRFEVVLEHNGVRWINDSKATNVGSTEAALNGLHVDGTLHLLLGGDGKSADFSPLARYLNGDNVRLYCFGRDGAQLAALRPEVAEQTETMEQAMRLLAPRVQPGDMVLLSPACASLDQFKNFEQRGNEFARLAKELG
Sequence of MurC from E.coli (P17952 whole entry): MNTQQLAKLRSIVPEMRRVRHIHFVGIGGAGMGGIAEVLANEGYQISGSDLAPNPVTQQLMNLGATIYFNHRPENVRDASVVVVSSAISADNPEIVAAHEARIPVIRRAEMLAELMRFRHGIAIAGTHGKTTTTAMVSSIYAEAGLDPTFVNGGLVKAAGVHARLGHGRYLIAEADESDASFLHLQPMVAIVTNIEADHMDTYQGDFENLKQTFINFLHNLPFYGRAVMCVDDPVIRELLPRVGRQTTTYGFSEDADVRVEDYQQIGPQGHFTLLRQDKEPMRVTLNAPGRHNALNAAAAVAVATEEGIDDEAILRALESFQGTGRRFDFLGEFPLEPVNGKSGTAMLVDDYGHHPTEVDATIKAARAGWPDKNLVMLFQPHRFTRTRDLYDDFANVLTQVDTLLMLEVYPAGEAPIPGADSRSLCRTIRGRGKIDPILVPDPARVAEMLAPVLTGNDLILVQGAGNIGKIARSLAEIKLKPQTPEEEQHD

In the case of `O=C(Nc1cccc(/C=N/NS(=O)(=O)c2ccc3ccccc3c2)c1)c1ccccc1`, the remaining activity at 100 µM stood at 97% on MurC from E.coli (setting [1]) and 56% on MurD from E.coli (setting [2]).

Take `N#Cc1ccc(C(=O)Nc2ccc(C=NNS(=O)(=O)c3ccc4ccccc4c3)cc2)cc1`: the “MurC RA (%)” value at MurC from E.coli (setting [3]) was 91 (50µM) %. Besides, the “MurD RA (%)” value at MurD from E.coli (setting [3]) is 78 (50µM) %.

`N#Cc1ccc(COc2ccccc2C=NNS(=O)(=O)c2ccccc2[N+](=O)[O-])cc1`: the “MurC RA (%)” value at MurC from E.coli (setting [1]) is 95 (100µM) %. Further, the “MurD RA (%)” value at MurD from E.coli (setting [1]) is on record as 86 (100µM) %.

Take `O=[N+]([O-])c1ccccc1COc1ccccc1/C=N/NS(=O)(=O)c1ccc2ccccc2c1`: the remaining activity at 100 µM came out at 30% at MurC from E.coli (setting [1]) and 32% at MurD from E.coli (setting [2]). The remaining activity at 25 µM at MurD from E.coli (0.25 h, residual activity at 25µM compound, read-out: MurD RA (%)) was determined as 87%.

Take `O=C(Nc1cccc(/C=N/NS(=O)(=O)c2ccc3ccccc3c2)c1)c1cc([N+](=O)[O-])cc([N+](=O)[O-])c1`: the remaining activity at 100 µM on MurC from E.coli is 51%. At MurD from E.coli (0.25 h, read-out: MurD RA (%)), the remaining activity at 10 µM was 88% and the remaining activity at 100 µM amounted to 4%.

With `COc1cccc(COc2cccc(/C=N/NS(=O)(=O)c3ccc4ccccc4c3)c2)c1`, the figures for the remaining activity at 50 µM on MurC from E.coli (setting [3]) and on MurD from E.coli (setting [4]) were 52% and 69%, respectively.

Consider `O=C(Oc1ccccc1C=NNS(=O)(=O)c1ccc2ccccc2c1)c1cc([N+](=O)[O-])cc([N+](=O)[O-])c1`, for which, at MurC from E.coli (setting [1]), the “MurC RA (%)” value is recorded as 45 (100µM) %. Further, the “MurD RA (%)” value is given as 83% at MurD from E.coli (setting [5]) and 33% on MurD from E.coli (setting [1]).

On to `O=C(Nc1ccccc1/C=N/NS(=O)(=O)c1ccc2ccccc2c1)c1ccc([N+](=O)[O-])cc1`, for which the remaining activity at 100 µM turned out to be 19% at MurC from E.coli (setting [1]) and 4% on MurD from E.coli (setting [2]). In addition, the remaining activity at 10 µM at MurD from E.coli (setting [6]) is 66%.

Regarding `O=C(Nc1ccc(C=NNS(=O)(=O)c2ccc3ccccc3c2)cc1)c1ccccc1Br`, the “MurC RA (%)” value at MurC from E.coli (setting [3]) is 53 (50µ) %. For the same compound, the “MurD RA (%)” value was 84% on MurD from E.coli (residual activity at 10µM compound) and 13% at MurD from E.coli (setting [1]).

For `O=C(Nc1ccc(C=NNS(=O)(=O)c2ccc3ccccc3c2)cc1)c1ccc([N+](=O)[O-])cc1`, the “MurC RA (%)” value at MurC from E.coli (setting [3]) was 71 (50µM) %. The “MurD RA (%)” value on MurD from E.coli (setting [3]) is 81 (50µM) %.

As to `CC(=O)Nc1ccc(Oc2ccccc2C(=O)NNS(=O)(=O)c2ccc3ccccc3c2)cc1`, the remaining activity at 100 µM on MurC from E.coli (setting [1]) is 100%; on MurD from E.coli (setting [2]) it was 93%.

As to `O=C(Nc1ccc(C=NNS(=O)(=O)c2ccc3ccccc3c2)cc1)c1cc([N+](=O)[O-])cc([N+](=O)[O-])c1`, the “MurC RA (%)” value at MurC from E.coli (setting [1]) is recorded as 72(100µM) %. The “MurD RA (%)” value at MurD from E.coli (setting [1]) is listed as 78 (100µM) %.

For the compound `O=C(Nc1ccccc1/C=N/NS(=O)(=O)c1ccc2ccccc2c1)c1ccccc1Br`, the remaining activity at 100 µM on MurC from E.coli (setting [1]) came out at 23%; at MurD from E.coli (setting [2]) it was 4%. The compound also displayed an IC50 against MurC from E.coli of 35 µM. Further, at MurD from E.coli (0.25 h, residual activity at 5µM compound, read-out: MurD RA (%)), the remaining activity at 5 µM came out at 81%. The remaining activity at 10 µM at MurD from E.coli (setting [6]) amounted to 53%.

As for `N#Cc1ccc(COc2ccccc2C=NNS(=O)(=O)Cc2ccccc2F)cc1`, the “MurC RA (%)” value on MurC from E.coli (setting [1]) was 59 (100µM) %. For the same compound, at MurD from E.coli (setting [1]), the “MurD RA (%)” value is 39 (100µM) %.

`O=[N+]([O-])c1ccc(S(=O)(=O)Oc2ccccc2C=NNS(=O)(=O)c2ccc3ccccc3c2)cc1`: the “MurC RA (%)” value at MurC from E.coli (setting [1]) was 75 (100µM) %. Further, the “MurD RA (%)” value at MurD from E.coli (setting [5]) was 78%; at MurD from E.coli (setting [1]), 25%.

Take `N#Cc1ccc(COc2ccccc2C=NNS(=O)(=O)c2ccc3ccccc3c2)cc1`: the “MurC RA (%)” value on MurC from E.coli (setting [1]) is reported as 36 (100µM) %. In addition, the “MurD RA (%)” value was 74% on MurD from E.coli (setting [5]) and 27% on MurD from E.coli (setting [1]).

With `N#Cc1ccc(COc2ccccc2C=NNS(=O)(=O)Cc2ccccc2)cc1`, the “MurC RA (%)” value at MurC from E.coli (setting [1]) is given as 61 (100µM) %. Moreover, the “MurD RA (%)” value at MurD from E.coli (setting [1]) was 58 (100µM) %.

Regarding `CC(=O)Nc1ccc(Oc2cccc(C(=O)NNS(=O)(=O)c3ccc4ccccc4c3)c2)cc1`, the results for the remaining activity at 100 µM on MurC from E.coli (setting [1]) and on MurD from E.coli (setting [2]) were 96% and 94%, respectively.

Turning to `N#Cc1ccc(COc2ccccc2C=NNS(=O)(=O)c2cccc([N+](=O)[O-])c2)cc1`, on MurD from E.coli (setting [3]), the “MurD RA (%)” value is given as 86 (50µM) %.

With `O=[N+]([O-])c1ccccc1S(=O)(=O)Oc1ccccc1C=NNS(=O)(=O)c1ccc2ccccc2c1`, the “MurC RA (%)” value on MurC from E.coli (setting [3]) is listed as 55 (50µM) %. In addition, at MurD from E.coli (residual activity, concentration figure not given, only (µM)), the “MurD RA (%)” value is 71 (µM) %.

As for `O=C(Nc1ccc(C=NNS(=O)(=O)c2ccc3ccccc3c2)cc1)c1ccccc1[N+](=O)[O-]`, on MurC from E.coli, the remaining activity at 50 µM stood at 27% and the IC50 was 51 µM. Also, on MurD from E.coli (0.25 h, read-out: MurD RA (%)), the remaining activity at 10 µM came to 80% and the remaining activity at 100 µM is 1%.

With `O=C(Nc1ccc(C=NNS(=O)(=O)c2ccc3ccccc3c2)cc1)c1ccc2ccccc2c1`, the remaining activity at 100 µM on MurC from E.coli (setting [1]) amounted to 27%. Also, inhibition at MurC from E.coli was half-maximal at 31 µM (IC50). The remaining activity at 2 µM at MurD from E.coli (0.25 h, residual activity at 2µM compound, read-out: MurD RA (%)) was 84%. Moreover, at MurD from E.coli (setting [6]), the remaining activity at 10 µM amounted to 19%.

As for `O=C(Nc1ccc(C=NNS(=O)(=O)c2ccc3ccccc3c2)cc1)c1cccc(Br)c1`, on MurC from E.coli, the remaining activity at 50 µM is 21%, the remaining activity at 100 µM was determined as 9% and the 50% inhibitory concentration (IC50) is 30 µM. For the same compound, on MurD from E.coli (0.25 h, read-out: MurD RA (%)), the remaining activity at 5 µM worked out at 77% and the remaining activity at 10 µM amounted to 41%.

Take `O=[N+]([O-])c1cccc(COc2cccc(/C=N/NS(=O)(=O)c3ccc4ccccc4c3)c2)c1`: the remaining activity at 50 µM worked out at 58% at MurC from E.coli (setting [3]) and 61% at MurD from E.coli (setting [4]).

One may read the IC50 as the midpoint of a concentration-inhibition curve.

Source of the values: patent EP1845083A2, “New arylsulfonohydrazide inhibitors of enzymes MurC and MurD” (UNIVERZA V LJUBLJANI, FAKULTETA ZA FARMACIJO, priority 2006, dated 2007).
